Test results published in US20250154611A1, “SYSTEMS AND METHODS TO DETECT STEM CELL STRESS AND USES THEREOF” (Wayne State University, priority 2014, published 2025).
Values joined by “and” are separate entries in the source; they are usually repeats but may differ in a detail not shown here. Identical values can stand only once.

Experiments:
Assay type in all cases: cell-based, mouse
Rex1-RFP ESCs = assay: Cell counts and doubling rate of Rex1-RFP ESCs at time zero and 3 days of sorbitol; details: 72 hr; for Doubling Rate: 0 mM 32.7 hr; for Relative Cell# (Total #, OUTSIDE BOX): time zero = 100, 0 mM = 460
Description: FIG. 28. Partial validation of the Theory of Compensatory Differentiation whereby stress decreases in size the normal levels of stem cell expansion and, in the nonmorbid stress range where doubling rates were near-normal, the diminished potency group that is enabled to differentiate is constant in size. […] A modified Venn diagram from previous modeling is presented here and analyzed with respect to supporting flow cytometry data for changes in potency subpopulation sizes derived from Table 8 and discussed in the text. For convenience, Table 8 is reproduced here:
Finally it was tested whether endogenous Rex1 protein levels decreased commensurately with decreases in Rex1-RFP activity levels assayed in FIG. 24. Rex1-RFP ESCs were cultured for 3 days with 0-300 mM sorbitol and assayed by immunoblot for endogenous Rex1 levels normalized to ACTB loading controls and with time zero unstressed Rex1 set to 100 as a baseline level. Whereas stress-induced decrease in Rex1 activity in FIG. 24 were 20% and 70% at 200 mM and 300 mM sorbitol, respectively endogenous Rex1 protein losses were 30% and 70% at 200 mM and 300 mM, respectively (FIG. 27). Through the series from 200 mM to 300 mM sorbitol there was generally good agreement between activity level and endogenous protein level for Rex1 at 3 days of stress and with Rex1 protein loss at 1 day (Example 2). To correlate stress-induced Rex1 potency loss with stress-induced diminished cell growth rates, cell counts were performed at time zero and at 3 days over the same sorbitol dose range as in FIG. 27 and FIG. 24 and FIGS. 26A & 26B. […]; see Brief Description of the Figures for Table 8).
The stress dose-dependent cell number of low potency cells can be determined by multiplying the fractional subpopulation size of cells with potency loss, which increases with stress and the decreasing cell numbers with increasing stress. This was done in Table 8 and compared with a previously published Venn diagram for compensatory differentiation (Puscheck, 2015, MB; Rappolee, 2013), modified to produce FIG. 28. In the stress-dose range where population size decreases, but increasing doubling rate is in a manageable range, the absolute size of the subpopulation of potency loss (intermediate and very low dim cells) is remarkably the same. At stress doses where very large doubling rate increases occur the subpopulation number with potency loss decreases, probably due to stem cell morbidity at these higher hyperosmotic stress levels (Example 2). Thus all three lines of evidence summarized here are consistent with the theory, but with limitations.

MEK1/2 = assay: phospho-MEK1/2 western blot in mESCs under 200 mM sorbitol; details: returned to baseline by 20 min
Description: FIG. 14. […] Blots are representative of triplicate experiments. Phospho-proteins and their loading controls are grouped between black lines.
Hyperosmotic activation of signaling enzymes. […] Zhong, 2010; Xie, 2011. After screening 21 signaling kinases in 11 subfamilies using 14 inhibitors, 5 kinases in the mitogen activated protein kinase (MAPK) and PI3K families were identified as producing differentiation-priming effects in hyperosmotic conditions. To determine the kinetics of activation of these five kinases in the described system, mESCs were treated with 200 mM sorbitol for 1 hr. Expression levels of the activated (i.e., phosphorylated) enzymes were assayed by western blot analysis (FIG. 14), including phospho-p38MAPK, phospho-JNK, phospho-MEK1/2, and phospho-AKT (the downstream effector of PI3K signaling). Activated p38MAPK was 1st detected at 10 min of stimulation; activation persisted throughout 1 hr of stimulation. Similarly, activated JNK was 1st detected at 20 min of stimulation, and persisted throughout 1 hr of stimulation. Activated MEK1/2 and activated AKT were present endogenously at low levels at time zero; sorbitol stimulated higher activation levels of each.

[1] = tested on: Rex1-RFP ESCs, Oct4-GFP ESCs; assay: Plate reader fluorescence of Rex1-RFP and Oct4-GFP reporter ESCs; details: 3 days
Procedure: FIGS. 23A and 23B. Stress induces loss of Rex1-RFP but not Oct4-GFP after days of 200 mM sorbitol. Viable pluripotency reporter Rex1-RFP ESCs (FIG. 23A) or Oct4-GFP ESCs (FIG. 23B) were cultured in […] plates to 30% confluence. Cells were then treated with 200 mM of sorbitol as an osmotic stress for 3 days. Fluorescence was determined from live ESCs using a plate reader from 200 mM sorbitol treated cells was normalized with the non-sorbitol treated control cells. Four independent experiments were carried out and plotted here.
FIG. 24. Viable Rex1 promoter reporter responds with stress treatment in a dose-dependent manner in flow cytometry assay. mESCs expressing Rex1 promoter reporter were cultured in 12-well plates till 30% confluent. Cells were then treated with 200-300 mM of sorbitol in 25 mM increments for 3 days. After trypsinization cell suspensions were assayed by flow cytometry.
mESC culture and stimulation. […] Osmolality of ESC media with and without added 200 mM sorbitol was determined as in Example 2.
Fluorescence determination by plate reader of pluripotency reporters. mESCs that stably express Oct4-copGFP and/or Rex1-mApple promoter reporters were plated on 96-well plates at a starting confluence of 5%. Four identical plates were made for the time course study. Cells were grown for 24 hr in incubator till 10% confluence was reached; an addition of stimuli was designated time zero. The cells were stressed for a time period selected from 1, 2, or 3 days. At each time point, the medium was removed and the cells were rinsed with D-PBS. At 50 μl/well, ESCs were measured for fluorescence using the Synergy H1 microplate reader (BioTek, Winooski, VT). The excitation and detection wavelengths for Oct4-copGFP were 485 nm and 528 nm, respectively. The excitation and detection wavelengths for Rex1-mApple were 568 nm and 611 nm, respectively. After live-cell reading, the cells were lysed with 50 μL of lysis buffer (1% NP-40, 0.5% TX-100, 100 mM NaCl, 2 mM EDTA, 50 mM Tris-HCl, and pH 7.5) and measured for fluorescence with the same parameters above. After fluorescence determination, the cell lysates were further measured for total protein concentrations by adding 100 μl of Pierce BCA protein assay reagent (Thermo Scientific Inc.) following the manufacturer's instructions. Finally, the fluorescence readings from either live-cells or lysates were normalized to total protein concentration readings, in which higher readings represent higher pluripotency of the cells.

`OC[C@@H](O)[C@@H](O)[C@H](O)[C@@H](O)CO` [sorbitol] was tested, and the “% Dim + Intermediate × Cell# (INSIDE BOX cell number)” value (“% Dim + Intermediate × Cell#” below) (Rex1-RFP ESCs; 200 mM) was 9893, the “Doubling Rate” value (Rex1-RFP ESCs; 200 mM) was 34.1 h and the “Relative Cell# (Total #, OUTSIDE BOX)” value (Rex1-RFP ESCs; 200 mM) was 432. For the same compound, the “% Dim + Intermediate × Cell#” value (Rex1-RFP ESCs; 225 mM) was 9930, the “Doubling Rate” value (Rex1-RFP ESCs; 225 mM) was 35.6 h and the “Relative Cell# (Total #, OUTSIDE BOX)” value (Rex1-RFP ESCs; 225 mM) was 407. For the same compound, the “% Dim + Intermediate × Cell#” value (Rex1-RFP ESCs; 250 mM) was 9968, the “Doubling Rate” value (Rex1-RFP ESCs; 250 mM) was 39.3 h and the “Relative Cell# (Total #, OUTSIDE BOX)” value (Rex1-RFP ESCs; 250 mM) was 356. The “% Dim + Intermediate × Cell#” value (Rex1-RFP ESCs; 275 mM) was 7418, the “Doubling Rate” value (Rex1-RFP ESCs; 275 mM) was 51.4 h and the “% Dim + Intermediate × Cell#” value (Rex1-RFP ESCs; 300 mM) was 4540. For the same compound, the “Doubling Rate” value (Rex1-RFP ESCs; 300 mM) was 103.4 h, the “Relative Cell# (Total #, OUTSIDE BOX)” value (Rex1-RFP ESCs; 300 mM) was 161 and 162 and the cell doubling rates (Rex1-RFP ESCs; 200-250 mM range) was 34.1 to 39.3 h. The cell doubling rates (Rex1-RFP ESCs; 275-300 mM) was 51.4 to 103.4 h, the “time of increased MEK1/2 activation” value (MEK1/2) was no more than 10 min and the Rex1-RFP fluorescence ([1]; 200 mM, LIF present) was “significant loss”. For the same compound, the “decrease in Rex1-RFP activity” value ([1]; 200 mM, LIF present) was 20%, the Oct4-GFP fluorescence ([1]; 200 mM, vs non-sorbitol control) was “not significantly different” and the Rex1-RFP fluorescence ([1]; all doses 200-300 mM in 25 mM increments) was “significant decrease”.
